These results are taken from patent US6001849A, “Furopyridine, thienopyridine pyrrolopyridine useful in controlling chemical synaptic transmission” (Abbott Laboratories, priority 1997, dated 1999).

The structures appear in SMILES notation. Counter-ions that a name gives are not always drawn.

For orientation: inhibition means the percentage by which the read-out fell short of the control.

For experiment [1], the target named is neuronal nicotinic acetylcholine receptors. The experiment in a line: [3H]-cytisine ligand-receptor binding assay (crude synaptic membranes from whole rat brain). The note with it: for Ki: Table 1, [3H]-cytisine 1.25 nM, 4° C., 60 min, Ki by Cheng and Prusoff, read-out: [^3 H]-Cyt Binding. The procedure:
For the purpose of identifying compounds as nicotinic acetylcholinergic agents which are capable of interacting with neuronal nicotinic acetylcholine receptors in the brain, a ligand-receptor binding assay was carried out as the initial screen. Compounds of the present invention were effective at interacting with neuronal nicotinic acetylcholine receptors as assayed for their ability to displace radioligand from neuronal nicotinic acetylcholine receptors labeled with [^3 H]-cytisine ([^3 H]-CYT).
A. Protocol For Determination of Nicotinic Acetylcholine Receptor Binding Potencies of Ligands
Binding of [^3 H]-CYT to nicotinic acetylcholine receptors was accomplished using crude synaptic membrane preparations from whole rat brain (Pabreza et al., Molecular Pharmacol., 1990, 39:9). Washed membranes were stored at -80° C. prior to use. Frozen aliquots were slowly thawed and resuspended in 20 volumes of buffer (containing: 120 mM NaCl, 5 mM KCl, 2 mM MgCl2, 2 mM CaCl2 and 50 mM Tris-Cl, pH 7.4 @4° C.). After centrifuging at 20,000×g for 15 minutes, the pellets were resuspended in 30 volumes of buffer. Homogenate (containing 125-150 μg protein) was added to triplicate tubes containing concentrations of test compound and [^3 H]-CYT (1.25 nM) in a final volume of 500 μL. Samples were incubated for 60 minutes at 4° C., then rapidly filtered through Whatman GF/B filters presoaked in 0.5% polyethylimine using 3×4 mL of ice-cold buffer. The filters were counted in 4 mL of Ecolume® (ICN). Nonspecific binding was determined in the presence of 10 μM (-)-nicotine and values were expressed as a percentage of total binding.

The test system of experiment [2] is neuronal nicotinic acetylcholine receptors in IMR-32 cells. The experiment in a line: 86Rb+ efflux assay in IMR-32 neuroblastoma cells. Type of experiment: cell-based, human. The note with it: Table 1; for IMR-32 % Inhibition @ 10 μM: inhibition of efflux elicited by 100 μM (S)-nicotine; for IMR-32 % max: maximal response, percent relative to 100 μM (S)-nicotine. The procedure: (§1) B. Protocols for the Determination of Functional Effects of Nicotinic Acetylcholine Receptor Ligands on Synaptic Transmission
Experimental cells were seeded at a density of 500,000 cells/mL into a 24-well tissue culture dish. Plated cells were allowed to proliferate for at least 48 hours before loading with 2 μCi/mL of ^86 Rb^+ (35 Ci/mmol) overnigh at 37° C.

Experiment [3] deals with T1, α4 and β2 nicotinic acetylcholine subunits (K177 cells) (Homo sapiens, UniProt P17787+P43681).
T1 construct: expressed in transfected cells
The experiment in a line: 86Rb+ efflux assay in K177 cells (HEK 293 stably transfected with α4 and β2 nicotinic acetylcholine subunits). Type of experiment: cell-based. The following applies: K177, Table 1; for inhibition at 10 µM: inhibition of efflux elicited by 100 μM (S)-nicotine, read-out: K177 % Inhibition @ 10 μM; for Emax: maximal response, percent relative to 100 μM (S)-nicotine, read-out: K177 % max. The procedure: as §1
Cells of the IMR-32 human neuroblastoma clonal cell line (ATCC, Rockville, Md.) were maintained in a log phase of growth according to established procedures (Lukas, R. J., J. Pharmacol. Exp. Ther., 265: 294-302, 1993). Experimental cells were seeded at a density of 500,000 cells/mL into a 24-well tissue culture dish. Plated cells were allowed to proliferate for at least 48 hours before loading with 2 μCi/mL of ^86 Rb^+ (35 Ci/mmol) overnigh at 37° C. The ^86 Rb^+ efflux assays were performed according to previously published protocols (Lukas, 1993) except serum-free Dulbecco's Modified Eagle's Medium was used during the ^86 Rb^+ loading, rinsing, and agonist-induced efflux steps.
Cells of the K177 cell line, resulting from stable transfection of the human embryonic kidney (HEK) 293 cell line with the cDNA of the α4 and β2 nicotinic acetylcholine subunits (Gopalakrishnan, et al, J. Pharmacol. Expt. Ther. 1996, 276, 289-297), were maintained in a log phase of growth according to established procedures (Gopalakrishnan, et al., loc. cit.). The cells were plated onto poly-lysine coated 24-well Costar plates (Cambridge, Mass.) at a density of 250,000 cells/well. When confluent, the cells were loaded with ^86 Rb^+ and agonist-induced efflux was assessed as reported above for IMR-32 cells.
Maximal responses (reported as percent relative to the response elicited by 100 μM (S)-nicotine) are shown for selected compounds of the invention. The inhibition data (given for other selected compounds) reflect inhibition of the efflux elicited by 100 μM (S)-nicotine at the indicated concentration. […] This finding is in agreement with the results of others who have linked dopamine release, which is dependent upon the ion flux in synaptic transmission, to binding at nicotinic receptors (cf., for example, Lippiello and Caldwell, U.S. Pat. No. 5,242,935, issued Sept. 7, 1993; Caldwell and Lippielo, U.S. Pat. No. 5,248,690, issued Sept. 28, 1993; and Wonnacott et al., Prog. Brain Res; 79: 157-163 (1989)).

T1 sequence (P43681 29-627 limits assumed): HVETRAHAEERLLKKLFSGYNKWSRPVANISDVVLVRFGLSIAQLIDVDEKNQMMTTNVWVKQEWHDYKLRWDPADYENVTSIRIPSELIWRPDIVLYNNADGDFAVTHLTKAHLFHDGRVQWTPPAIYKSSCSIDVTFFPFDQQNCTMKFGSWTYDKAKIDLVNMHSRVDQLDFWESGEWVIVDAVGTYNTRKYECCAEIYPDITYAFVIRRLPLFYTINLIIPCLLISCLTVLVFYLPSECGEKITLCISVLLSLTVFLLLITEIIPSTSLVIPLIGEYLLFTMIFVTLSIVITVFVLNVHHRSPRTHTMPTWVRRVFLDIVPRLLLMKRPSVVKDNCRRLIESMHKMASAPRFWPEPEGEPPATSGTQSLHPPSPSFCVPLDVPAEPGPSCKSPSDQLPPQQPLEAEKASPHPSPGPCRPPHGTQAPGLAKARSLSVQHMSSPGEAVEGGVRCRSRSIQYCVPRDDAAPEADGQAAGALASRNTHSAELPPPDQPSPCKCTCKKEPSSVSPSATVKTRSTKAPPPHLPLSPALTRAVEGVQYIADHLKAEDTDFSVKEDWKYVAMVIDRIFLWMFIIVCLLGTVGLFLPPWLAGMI
T1 sequence (P17787 26-502): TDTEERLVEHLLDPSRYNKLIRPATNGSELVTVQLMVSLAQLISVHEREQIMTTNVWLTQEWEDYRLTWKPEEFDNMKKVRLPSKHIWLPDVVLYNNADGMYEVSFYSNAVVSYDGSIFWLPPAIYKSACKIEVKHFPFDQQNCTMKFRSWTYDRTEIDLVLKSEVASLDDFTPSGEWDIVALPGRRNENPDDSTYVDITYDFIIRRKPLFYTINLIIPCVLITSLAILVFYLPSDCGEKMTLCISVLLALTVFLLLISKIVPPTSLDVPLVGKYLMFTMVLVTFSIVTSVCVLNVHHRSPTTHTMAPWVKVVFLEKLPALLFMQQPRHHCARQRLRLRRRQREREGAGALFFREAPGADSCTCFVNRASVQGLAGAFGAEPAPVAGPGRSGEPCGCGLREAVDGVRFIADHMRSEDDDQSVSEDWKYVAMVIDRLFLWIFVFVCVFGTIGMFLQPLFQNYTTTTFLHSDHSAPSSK

With `CN1CCC[C@H]1c1cc2nc(Cl)c(Cl)cc2o1.Cl` [Example 26, 5,6-Dichloro-2-(1-methyl-2-(S)-pyrrolidinyl)furo[3,2-b]pyridine hydrochloride], the Ki in experiment [1] was 0.66 nM. In addition, in experiment [1] (preferred compounds), the “binding to the nicotinic acetylcholine receptor (in words)” value is “most potent binders”. Further, in experiment [2], the “IMR-32 % Inhibition @ 10 μM” value came out at 38% and the IMR-32 % max is given as 7%. In experiment [3], the inhibition at 10 µM is 53% and the Emax worked out at 6%.

With `Cc1ccc2oc([C@H]3CCCN3)cc2n1.Cl` [Example 29, 5-methyl-2-(2-(R)-pyrrolidinyl)-furo[3,2-b]pyridine hydrochloride], the Ki in experiment [1] was 6.8 nM. In experiment [2], the “IMR-32 % Inhibition @ 10 μM” value is given as 0%. In experiment [3], the inhibition at 10 µM is 28% and the Emax amounted to 0%.

For the compound `Cl.Clc1cc2oc(C34CCCN3CCC4)cc2nc1Cl` [Example 38, 2-(Hexahydro-1H-7a-pyrrolizinyl)-5,6-dichlorofuro[3,2-b]pyridine hydrochloride], in experiment [1], the Ki was determined as 0.33 nM. In addition, in experiment [2], the “IMR-32 % Inhibition @ 10 μM” value was 10% and the IMR-32 % max worked out at 12%. In addition, in experiment [3], the Emax stood at 0%.

For the compound `Cl.Clc1cc2oc([C@H]3CCCN3)cc2nc1Cl` [Example 39, 5,6-Dichloro-2-(2-(R)-pyrrolidinyl)furo[3,2-b]pyridine hydrochloride], the Ki in experiment [1] amounted to 1.1 nM. Besides, in experiment [2], the “IMR-32 % Inhibition @ 10 μM” value is reported as 25% and the IMR-32 % max stood at 4%. Also, in experiment [3], the Emax was determined as 39%.

Turning to `CN1[C@@H]2CC[C@@H](C2)[C@H]1c1cc2ncccc2o1` [Example 42, 2-((1R,4S)-2-aza-3-(S)-bicyclo[2.2.1]heptyl)-2-methylfuro[3,2-b]pyridil dihydrochloride], the Ki in experiment [1] is 4.7 nM. In experiment [2], this compound gave an IMR-32 % max of 24%. The Emax in experiment [3] stood at 29%.

In the case of `CN1CCC[C@H]1c1cc2nc(Cl)c(Br)cc2o1.Cl.Cl` [Example 48, 6-bromo-5-chloro-2-(1-methyl-2-(S)-pyrrolidinyl)furo[3,2-b]pyridine dihydrochloride], the Ki in experiment [1] came to 1.3 nM. For the same compound, in experiment [2], the “IMR-32 % Inhibition @ 10 μM” value came out at 0% and the IMR-32 % max worked out at 6%. Further, in experiment [3], the Emax was found to be 0%.
